Measurements as given in patent US5096924A, “Anticancer antibiotic MI43-37F11 substance” (501 Azidan Hojin Biseibutsu Kagaku Kenkyu Kai, priority 1989, dated 1992).
Values after ≈ are worked out from the molar mass of the structure shown. “Also recorded” adds a separate entry of the source.

Key:
human lung cancer LX-1 = assay: Inhibition of proliferation of human lung cancer LX-1 cells (MTT); assay type: cell-based; conditions: 120 h, human lung cancer LX-1, 37° C, 5 days
Description: A cell suspension containing cells of mouse Leukemia L1210, mouse Leukemia P388, mouse Leukemia EL4, mouse IMC carcinoma or human lung cancer LX-1 cells in a culture medium containing 10% calf serum at a cell density of 1 x 10^5 cells/ml was prepared, and 200 μl-portion of the cell suspension so prepared was placed in a microplate and then added with a solution of MI43-37F11 substance at varying concentrations (dissolved in a mixture of water and dimethylsulfoxide (95:5)). The cell suspension containing the test compound added was subsequently incubated at 37° C for 2 days (but 5 days for the LX-1 cells). […]

peritoneal macrophages = assay: Effect on phagocytosis of the peritoneal macrophages; assay type: in vivo, CDF1 mice; conditions: for Rate (%) of Increase in phagocytic action of peritoneal macrophages: 3 days and one day before harvest, control 100
Description: (4) Experiments for estimation of the effect of the antibiotic MI43-37F11 substance on phagocytosis of the peritoneal macrophages were conducted by the following procedure. Thus, 3 days and one day before the harvest of the peritoneal macrophages, MI43-37F11 substance was intraperitoneally administered to CDF1 mice (female, 8-weeks old, 3 mice) at a dosage of 50 mg/kg, 5 mg/kg or 0.5 mg/kg. One day after the administration of MI43-37F11 substance, the peritoneal macrophages were harvested from the peritoneal cavity of the mice of the treated group of mice and then inoculated into a culture medium present in a plastic dish (Falcone) at the cell density of 5×10^5 cells/m(, followed by incubation of the macrophages. The incubated medium containing the macrophages was then added with 7.5×10^6 cells/ml of heat-treated yeast cells, followed by further incubation for a time. The macrophages were then fixed by addition of methanol and stained by Giemsa staining method. The number of the yeast cells which received the phagocytosis by 400 macrophages was counted. The control group of mice (untreated) received only intraperitoneal injection of physiological saline in place of the administration of MI43-37F11 substance, before the harvest of the peritoneal macrophages was done. Assumed that the number of the yeast cells which had received the phagocytosis by 400 macrophages as harvested from the mice of the control group was amounting to 100, the rate of increase in the phagocytic action of the peritoneal macrophages as harvested from the treated group of mice was evaluated. In other words, the rate (%) of increase in the phagocytic action of the peritoneal macrophages of the mice of the treated group was calculated according to the following equation: [formula] where T means the mumber of yeast cells having received the phagocytosis by 400 macrophages which were harvested from the treated group of mice, and C means the number of yeast cells having received the phagocytosis by 400 macrophages which were harvested from the control group of mice (untreated).

Solubility = assay type: physicochemical
Toxicity to mammalian = assay type: in vivo; conditions: general statement, no data

## COc1cc(O)c2c(=O)oc(CO)cc2c1 [MI43-37F11 substance]
Human lung cancer LX-1
  IC50: 100 µg/mL (≈ 450 µM)
Peritoneal macrophages; 0.5 mg/kg i.p.
  Rate (%) of Increase in phagocytic action of peritoneal macrophages: 102%
Peritoneal macrophages; 5 mg/kg i.p.
  Rate (%) of Increase in phagocytic action of peritoneal macrophages: 80%
Peritoneal macrophages; 50 mg/kg i.p.
  Rate (%) of Increase in phagocytic action of peritoneal macrophages: 144%
Peritoneal macrophages; summary in words
  enhance the phagocytic action of the macrophages: effective
Solubility; in acetonitrile
  Solubility: easily soluble
Solubility; in chloroform
  Solubility: soluble
Solubility; in hexane
  Solubility: hardly soluble
Solubility; in methanol
  Solubility: soluble
Solubility; in water
  Solubility: hardly soluble
Toxicity to mammalian
  toxicity to mammalian: low toxicity to mammalian; also recorded: without showing any observable toxicity to mammalian
